From patent US10508111B2, “6-[5-amino-6-(2-ethoxyethoxy)-imidazo[4,5-B]pyridin-3-yl]-nicotinonitrile derivatives and their use as IRAK inhibitors” (GALAPAGOS NV, priority 2015, dated 2019)

How the values were obtained:
CDK9 = biological target: T1, CDK9 (Homo sapiens, UniProt P50750); assay: Kinase selectivity profiling (focused panel), radioactive filter plate assay: CDK9; format: biochemical; conditions: PDKtide, 0.25 μM ATP, 60 min
T1 construct: purchased Millipore 14-685
Protocol: (§1) The purpose of this assay is to determine the activity and selectivity of a compound of the invention on a selected range of human kinases which may result in undesirable side-effects when inhibited (Dy & Adjei 2013; Force & Kolaja 2011).
(§2) The IC50 value for off-target kinases is determined in radioactive filter plate assays. The principle of the assays consists in the measurement of incorporated ^33P into a peptide substrate upon phosphorylation by the kinase enzyme using [γ-^33P]ATP and ATP. Unincorporated ^33P is removed by loading the samples on a filter plate (using a harvester, PerkinElmer) and 6 subsequent washing steps. Incorporated ^33P in the peptide substrate is measured by a scintillation counter (Topcount, PerkinElmer) after addition of MicroScint™-20 (PerkinElmer, 6013621) to the filter plates.
(§3) 5 μL of a water dilution series of test compound (starting from 20 μM or 6.6 μM highest concentration), from a 100% DMSO stock solution, 1/5 dilution, is added to the wells (final DMSO concentration of 1% in reaction assay). Enzyme and peptide substrate are used at optimized concentrations (cf. Table VI). The enzyme and substrate are diluted in assay buffer to a total volume of 11 μL. The reaction is started by addition of 9 μL of ATP+[γ-^33P]ATP, diluted in the same buffer as enzyme and substrate. The mixture is incubated at 30° C. The reaction is terminated by adding 25 μL of 150 mM phosphoric acid. Samples are transferred to filter plates and incorporated radioactivity is measured using a scintillation counter.
(§4) The incubation time, assay buffer composition, and concentrations of ATP, enzyme and substrate are reported in Table VI for example kinase off-target assays.
(§5) 10 μM staurosporine (1% DMSO) is used as positive control (100% inhibition); vehicle (water+1% DMSO) as negative control (0% inhibition).

[1] = test system: IL-1β triggered MMP13 release in SW1353 cells; assay: SW1353 cellular selectivity assay, IL-1β trigger, MMP13 readout; format: cell-based, human; conditions: IL-1β trigger 1 ng/mL; for IC50: Homo sapiens; for IL-1β trigger MMP13 PIN at 20 μM: percent inhibition at 20 μM compound
Text: The aim of this assay is to evaluate the selectivity of compounds of the invention for the activated TLR/IRAK-4 pathway in an in vitro human cellular assay setting. SW1353 cells are from a chondrocytic cell line and are responsive to both the interleukin 1 (IL-1) and the TNFα cytokine triggers. Both cytokine triggers induce the expression of interleukin 6 (IL-6) and MMP13 by these cells. IL-6 and MMP13 releases are used as readouts in this assay and represent a measure for the level of inhibition of the TLR/IRAK-4 pathway by the tested compound.
SW1353 cells are cultured in DMEM supplemented with 10% FBS and 1% Penicillin/Streptomycin. Cells are incubated at 37° C. in a humidified atmosphere of 5% CO2 and subcultured twice a week. During subculturing, trypsin-EDTA is used to detach the cells, followed by a neutralization step with cell culture medium. After centrifugation (1,000 rpm during 5 min), the pellet is resuspended in cell culture medium and cells are counted using an automated cell counter (Invitrogen Countess™).
Cells are used at passage 16 and plated at a density of 15,000 cells per well in 120 μL cell culture medium in 96-well culture plates. Cells are allowed to attach during overnight incubation.
SW1353 cells are pre-incubated with test compound by addition of 15 μL of 10× concentrated compound solution for 2 h at 37° C. and 5% CO2. The compounds are tested at different concentrations and prepared by 3-fold serial dilutions from the 10 mM stock solution in DMSO followed by a 1/50 dilution step in cell culture medium. Final test concentrations in the assay start from 20 μM, with subsequent 3-fold serial dilutions with equal final DMSO concentrations of 0.2%. After the compound pre-incubation step, the SW1353 cells are triggered by addition of 15 μL of 10× concentrated IL-1f (Peprotech, 200-01B) or TNFα trigger (Peprotech, 300-01A) to the wells with final assay volume of 150 μL per well and final trigger concentration of 1 ng/mL and 10 ng/mL, respectively. Negative controls are adjusted with equal DMSO concentrations without trigger. The assay plates are then incubated in a humidified incubator at 37° C. and 5% CO2. Cell supernatants are harvested 24 h and 48 h later by transferring the cell medium into a V-bottom polypropylene 96-well plate and stored at −80° C. until ELISA readout.
The levels of secreted MMP13 in the cell supernatants are quantified in an antibody capture activity assay. […] After incubation for 1 h at 37° C., fluorescence of the converted substrate is measured with a PerkinElmer EnVision® (excitation wavelength: 320 nm, emission wavelength: 405 nm).
All controls are measured within the linear range of the human IL-6 and MMP13 standard curve of the ELISA. […]

ABL = biological target: T2, ABL (Homo sapiens, UniProt P00519); assay: Kinase selectivity profiling (focused panel), radioactive filter plate assay: ABL; format: biochemical; conditions: PolyGT substrate, 0.5 μM ATP, 60 min
T2 construct: purchased Life Technologies P3049
Protocol: as §1, §2, §3, §4, §5

Aurora B = biological target: T3, Aurora B (Homo sapiens, UniProt Q96GD4); assay: Kinase selectivity profiling (focused panel), radioactive filter plate assay: Aurora B; format: biochemical; conditions: Histone H3 peptide, 1.3 μM ATP, 90 min
T3 construct: purchased Carna BioSciences 05-102
Protocol: as §1, §2
as §3, with “The reaction is started by addition of 9 μL of ATP+[γ-^33P]ATP, diluted in the same buffer as enzyme and substrate. The mixture is incubated at 30° C. The reaction is terminated by adding 25 μL of 150 mM phosphoric acid.” left out, “counter. […]” for “counter.”

T1 sequence (P50750 whole entry): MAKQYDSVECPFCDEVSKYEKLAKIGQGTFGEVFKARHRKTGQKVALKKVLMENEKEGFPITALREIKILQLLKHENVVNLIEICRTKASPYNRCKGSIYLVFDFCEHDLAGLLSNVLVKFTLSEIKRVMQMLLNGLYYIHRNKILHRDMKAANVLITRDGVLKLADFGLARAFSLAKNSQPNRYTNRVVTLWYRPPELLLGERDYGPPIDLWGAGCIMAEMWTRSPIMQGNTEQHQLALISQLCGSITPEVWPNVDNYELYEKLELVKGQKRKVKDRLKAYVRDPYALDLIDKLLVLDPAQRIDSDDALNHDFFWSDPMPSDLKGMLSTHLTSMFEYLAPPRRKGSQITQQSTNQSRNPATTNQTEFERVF
T1 sequence (O60563 whole entry partner): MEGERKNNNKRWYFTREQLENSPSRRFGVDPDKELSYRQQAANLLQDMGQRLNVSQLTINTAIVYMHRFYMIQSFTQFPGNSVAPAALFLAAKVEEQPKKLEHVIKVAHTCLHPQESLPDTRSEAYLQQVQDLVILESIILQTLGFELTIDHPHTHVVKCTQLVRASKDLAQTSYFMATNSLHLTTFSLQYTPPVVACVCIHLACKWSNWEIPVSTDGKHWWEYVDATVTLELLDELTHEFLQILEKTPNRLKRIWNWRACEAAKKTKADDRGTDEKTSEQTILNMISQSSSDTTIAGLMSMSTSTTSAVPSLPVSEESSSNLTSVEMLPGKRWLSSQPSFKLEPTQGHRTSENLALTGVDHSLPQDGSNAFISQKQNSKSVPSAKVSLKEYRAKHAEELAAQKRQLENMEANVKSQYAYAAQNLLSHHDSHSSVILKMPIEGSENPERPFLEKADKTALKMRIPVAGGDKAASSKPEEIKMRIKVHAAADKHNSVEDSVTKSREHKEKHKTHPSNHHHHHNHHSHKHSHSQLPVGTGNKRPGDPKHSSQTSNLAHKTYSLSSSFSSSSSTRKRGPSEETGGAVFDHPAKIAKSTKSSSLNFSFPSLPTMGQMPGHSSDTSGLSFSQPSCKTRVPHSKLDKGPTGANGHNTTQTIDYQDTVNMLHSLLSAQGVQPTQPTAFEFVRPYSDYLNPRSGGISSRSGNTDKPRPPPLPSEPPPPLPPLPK
T3 sequence (Q96GD4 whole entry): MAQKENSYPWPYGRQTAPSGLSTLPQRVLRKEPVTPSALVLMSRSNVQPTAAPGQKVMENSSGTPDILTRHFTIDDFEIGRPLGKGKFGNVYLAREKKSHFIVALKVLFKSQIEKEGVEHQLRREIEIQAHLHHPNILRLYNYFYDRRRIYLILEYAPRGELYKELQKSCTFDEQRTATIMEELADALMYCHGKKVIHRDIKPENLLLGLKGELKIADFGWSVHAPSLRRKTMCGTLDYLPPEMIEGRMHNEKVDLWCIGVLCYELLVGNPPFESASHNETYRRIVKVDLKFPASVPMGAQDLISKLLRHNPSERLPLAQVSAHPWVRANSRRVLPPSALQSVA
T3 sequence (Q9NQS7 803-918 partner limits assumed): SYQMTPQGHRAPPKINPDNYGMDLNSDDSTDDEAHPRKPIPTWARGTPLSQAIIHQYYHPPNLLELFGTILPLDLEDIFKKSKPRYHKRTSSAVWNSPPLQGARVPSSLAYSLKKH
T2 sequence (P00519 whole entry): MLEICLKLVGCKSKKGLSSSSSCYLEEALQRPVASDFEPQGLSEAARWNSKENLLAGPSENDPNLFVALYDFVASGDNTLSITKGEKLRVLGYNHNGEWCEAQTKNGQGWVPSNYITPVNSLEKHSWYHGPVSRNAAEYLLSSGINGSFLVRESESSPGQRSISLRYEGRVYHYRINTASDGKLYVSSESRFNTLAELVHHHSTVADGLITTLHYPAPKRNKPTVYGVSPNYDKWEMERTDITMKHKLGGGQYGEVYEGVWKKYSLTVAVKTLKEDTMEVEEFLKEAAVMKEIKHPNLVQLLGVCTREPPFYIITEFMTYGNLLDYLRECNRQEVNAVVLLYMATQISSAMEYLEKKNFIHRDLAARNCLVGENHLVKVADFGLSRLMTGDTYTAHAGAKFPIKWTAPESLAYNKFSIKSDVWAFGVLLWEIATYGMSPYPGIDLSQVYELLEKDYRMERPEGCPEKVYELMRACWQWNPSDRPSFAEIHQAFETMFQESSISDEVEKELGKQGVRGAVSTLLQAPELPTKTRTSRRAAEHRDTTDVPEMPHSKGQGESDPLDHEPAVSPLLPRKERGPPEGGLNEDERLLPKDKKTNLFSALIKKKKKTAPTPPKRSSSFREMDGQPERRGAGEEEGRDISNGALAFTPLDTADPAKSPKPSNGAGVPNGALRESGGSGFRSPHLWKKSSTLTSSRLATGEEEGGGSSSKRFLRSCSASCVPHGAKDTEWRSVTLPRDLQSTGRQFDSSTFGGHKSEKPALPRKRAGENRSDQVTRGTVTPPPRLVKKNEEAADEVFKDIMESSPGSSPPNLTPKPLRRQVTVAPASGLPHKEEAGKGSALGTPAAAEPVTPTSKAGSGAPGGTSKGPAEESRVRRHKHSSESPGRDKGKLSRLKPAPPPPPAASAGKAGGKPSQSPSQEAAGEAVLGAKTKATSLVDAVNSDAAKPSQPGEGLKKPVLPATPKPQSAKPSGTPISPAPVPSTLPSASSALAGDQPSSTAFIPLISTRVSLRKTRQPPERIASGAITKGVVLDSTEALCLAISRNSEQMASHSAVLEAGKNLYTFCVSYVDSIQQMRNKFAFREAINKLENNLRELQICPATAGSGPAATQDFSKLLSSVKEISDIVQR

Structure (SMILES) | IC50 (CDK9) | IC50 [1] | IL-1β trigger MMP13 PIN at 20 μM [1] | IC50 (ABL) | IC50 (Aurora B)
N#Cc1ccc(-n2cnc3cc(OCCOCCO)c(NC4CCOCC4)nc32)nc1 [Compound 1, 6-[6-[2-(2-hydroxy-ethoxy)-ethoxy]-5-(tetrahydro-pyran-4-ylamino)-imidazo[4,5-b]pyridin-3-yl]-nicotinonitrile] | > 1330 nM | 36 nM | [81%] |  | 
C[C@]1(O)CC[C@@H](Nc2nc3c(cc2OCCOCCO)ncn3-c2ccc(C#N)cn2)CC1 [Compound 12, 6-[6-[2-(2-hydroxyethoxy)ethoxy]-5-[((cis-1,4)-4-hydroxy-4-methylcyclohexyl)amino]imidazo[4,5-b]pyridin-3-yl]pyridine-3-carbonitrile] | 1150 nM | 29 nM | [75%] | 138 nM | > 1880 nM
